Results published in the supplement of paper PMC12406974.

Columns and labels:
Assay in all cases: maximum observed lethal fraction; higher = more cell death
[1] = tested on: U2OS PTBP1-KO
[2] = tested on: U2OS
[3] = tested on: U2OS BAX/BAK1 DKO
[4] = tested on: U2OS BCL2L12-KO
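Further: FLICK assay: SYTOX Green fluorescence of dead cells tracked over time after drugging in 96-well plates, with total cell counts taken from Triton X-100 lysed wells.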

CN1CC[C@H](c2c(O)cc(O)c3c(=O)cc(-c4ccccc4Cl)oc23)[C@H](O)C1 [Flavopiridol]
maximum observed lethal fraction
Details	0.01 µM	0.0316 µM	0.1 µM	0.316 µM	1 µM	3.16 µM	10 µM
[1]	0.0606	0.067	0.099	0.198	0.282	0.247	0.198
[2]	0.0575	0.0639	0.486	0.528	0.552	0.501	0.356
[3]	0.0607	0.0712	0.208	0.0919	0.093	0.092	0.0925
[4]	0.0552	0.0619	0.1	0.279	0.298	0.295	0.249

COC(=O)C[C@](O)(CCCC(C)(C)O)C(=O)O[C@@H]1C(OC)=C[C@]23CCCN2CCc2cc4c(cc2[C@H]13)OCO4 [Homoharringtonine]
maximum observed lethal fraction
Details	0.01 µM	0.0316 µM	0.1 µM	0.316 µM	1 µM	3.16 µM	10 µM
[1]	0.0765	0.165	0.0974	0.109	0.186	0.184	0.197
[2]	0.0607	0.0942	0.296	0.395	0.578	0.692	0.722
[3]	0.0663	0.099	0.0992	0.106	0.112	0.102	0.106
[4]	0.0701	0.0909	0.0937	0.102	0.0962	0.115	0.21

CC(=O)[C@]1(O)Cc2c(O)c3c(c(O)c2[C@@H](O[C@H]2C[C@H](N)[C@H](O)[C@H](C)O2)C1)C(=O)c1ccccc1C3=O [Idarubicin]
maximum observed lethal fraction
Details	0.001 µM	0.00316 µM	0.01 µM	0.0316 µM	0.1 µM	0.316 µM	1 µM
[1]	0.077	0.0792	0.0832	0.2	0.633	0.589	0.305
[2]	0.0637	0.0722	0.0707	0.166	0.666	0.792	0.604
[3]	0.0756	0.0795	0.0849	0.0871	0.212	0.18	0.193
[4]	0.0766	0.088	0.0897	0.231	0.74	0.724	0.321

CC(C)C[C@@H](C=O)NC(=O)[C@H](CC(C)C)NC(=O)[C@H](CC(C)C)NC(=O)OCc1ccccc1 [MG132]
maximum observed lethal fraction
Details	0.01 µM	0.0316 µM	0.1 µM	0.316 µM	1 µM	3.16 µM	10 µM
[1]	0.0698	0.0706	0.0708	0.182	0.683	0.813	0.923
[2]	0.0559	0.0568	0.0844	0.698	0.86	0.893	0.926
[3]	0.0534	0.0549	0.0687	0.0897	0.337	0.434	0.384
[4]	0.0715	0.07	0.0753	0.327	0.817	0.914	0.972

O=C(NOC[C@H](O)CO)c1ccc(F)c(F)c1Nc1ccc(I)cc1F [Mirdametinib]
maximum observed lethal fraction
Details	0.0316 µM	0.1 µM	0.316 µM	1 µM	3.16 µM	10 µM	31.6 µM
[1]	0.0994	0.11	0.102	0.121	0.187	0.229	0.376
[2]	0.0749	0.077	0.0842	0.244	0.353	0.435	0.554
[3]	0.0734	0.0716	0.0737	0.078	0.0794	0.0785	0.0843
[4]	0.104	0.11	0.123	0.349	0.546	0.58	0.806

NC(=O)c1cccc2cn(-c3ccc([C@@H]4CCCNC4)cc3)nc12 [Niraparib]
maximum observed lethal fraction
Details	0.1 µM	0.316 µM	1 µM	3.16 µM	10 µM	31.6 µM	100 µM
[1]	0.0698	0.0678	0.0749	0.0795	0.0839	0.396	0.964
[2]	0.0543	0.0611	0.0677	0.067	0.0744	0.716	0.968
[3]	0.0556	0.0569	0.065	0.0723	0.0787	0.342	0.936
[4]	0.0692	0.0678	0.0775	0.0795	0.0934	0.86	0.928

CC(=O)c1c(C)c2cnc(Nc3ccc(N4CCNCC4)cn3)nc2n(C2CCCC2)c1=O [Palbociclib]
maximum observed lethal fraction
Details	0.01 µM	0.0316 µM	0.1 µM	0.316 µM	1 µM	3.16 µM	10 µM
[1]	0.0641	0.0713	0.0739	0.0802	0.0817	0.0847	0.109
[2]	0.0597	0.068	0.0645	0.0683	0.0747	0.09	0.173
[3]	0.0642	0.0646	0.0686	0.0764	0.0783	0.0842	0.0911
[4]	0.0599	0.0645	0.0667	0.0699	0.0732	0.0829	0.221

Cc1[nH]c2ccccc2c1CCNCc1ccc(/C=C/C(=O)NO)cc1 [Panobinostat]
maximum observed lethal fraction
Details	0.001 µM	0.00316 µM	0.01 µM	0.0316 µM	0.1 µM	0.316 µM	1 µM
[1]	0.0914	0.11	0.349	0.527	0.601	0.603	0.65
[2]	0.0735	0.0836	0.265	0.655	0.761	0.802	0.851
[3]	0.0715	0.0768	0.0894	0.102	0.108	0.0953	0.0939
[4]	0.0774	0.0897	0.352	0.775	0.856	0.838	0.895

CO[C@H]1C[C@@H]2CC[C@@H](C)[C@@](O)(O2)C(=O)C(=O)N2CCCC[C@H]2C(=O)O[C@H]([C@H](C)C[C@@H]2CC[C@@H](O)[C@H](OC)C2)CC(=O)[C@H](C)/C=C(\C)[C@@H](O)[C@@H](OC)C(=O)[C@H](C)C[C@H](C)/C=C/C=C/C=C/1C [Rapamycin]
maximum observed lethal fraction
Details	0.01 µM	0.0316 µM	0.1 µM	0.316 µM	1 µM	3.16 µM	10 µM
[1]	0.0742	0.0686	0.0757	0.0711	0.0784	0.0724	0.0767
[2]	0.062	0.0603	0.0606	0.0645	0.061	0.0607	0.0674
[3]	0.0624	0.0616	0.0646	0.0631	0.0613	0.0695	0.0695
[4]	0.0761	0.0732	0.0721	0.0738	0.0786	0.084	0.0965

CN(C)C(=O)c1cc2cnc(Nc3ccc(N4CCNCC4)cn3)nc2n1C1CCCC1 [Ribociclib]
maximum observed lethal fraction
Details	0.01 µM	0.0316 µM	0.1 µM	0.316 µM	1 µM	3.16 µM	10 µM
[1]	0.0584	0.0595	0.064	0.0704	0.0696	0.0751	0.0787
[2]	0.0675	0.0565	0.0602	0.0591	0.0629	0.0661	0.077
[3]	0.0572	0.057	0.0609	0.0673	0.0658	0.0721	0.082
[4]	0.0551	0.0572	0.0587	0.0607	0.0645	0.07	0.0804

CNCc1ccc(-c2[nH]c3cc(F)cc4c3c2CCNC4=O)cc1 [Rucaparib]
maximum observed lethal fraction
Details	0.1 µM	0.316 µM	1 µM	3.16 µM	10 µM	31.6 µM	100 µM
[1]	0.0657	0.065	0.0647	0.0685	0.0766	0.18	0.683
[2]	0.0508	0.0538	0.0545	0.057	0.0608	0.278	0.81
[3]	0.0512	0.0548	0.0528	0.06	0.0652	0.0926	0.178
[4]	0.065	0.0637	0.0652	0.0687	0.0753	0.195	0.886

Cc1cc(Nc2ccc(NC(=O)c3ccc(Nc4ccnc5ccccc45)cc3)cc2)nc(N)n1 [SGI-1027]
maximum observed lethal fraction
Details	0.0316 µM	0.1 µM	0.316 µM	1 µM	3.16 µM	10 µM	31.6 µM
[1]	0.0577	0.0687	0.0612	0.208	0.977	1	0.886
[2]	0.0565	0.0566	0.0644	0.414	0.997	1	0.875
[3]	0.0581	0.0592	0.0626	0.104	0.964	1	0.883
[4]	0.0572	0.0566	0.0604	0.902	1	0.984	0.888

CN[C@@H]1C[C@H]2O[C@@](C)([C@@H]1OC)n1c3ccccc3c3c4c(c5c6ccccc6n2c5c31)C(=O)NC4 [Staurosporine]
maximum observed lethal fraction
Details	0.01 µM	0.0316 µM	0.1 µM	0.316 µM	1 µM	3.16 µM	10 µM
[1]	0.476	0.77	0.93	0.878	0.737	0.781	0.864
[2]	0.508	0.709	0.903	0.819	0.71	0.642	0.811
[3]	0.104	0.113	0.125	0.121	0.125	0.136	0.254
[4]	0.437	0.593	0.936	0.877	0.736	0.725	0.894

CN(C)C/C=C/C(=O)Nc1ccc(C(=O)Nc2cccc(Nc3ncc(Cl)c(-c4c[nH]c5ccccc45)n3)c2)cc1 [THZ1]
maximum observed lethal fraction
Details	0.01 µM	0.0316 µM	0.1 µM	0.316 µM	1 µM	3.16 µM	10 µM
[1]	0.101	0.239	0.388	0.33	0.486	0.627	0.707
[2]	0.0758	0.274	0.452	0.441	0.57	0.678	0.76
[3]	0.0742	0.0981	0.0902	0.1	0.109	0.157	0.12
[4]	0.0888	0.274	0.475	0.467	0.582	0.742	0.761

CN(C)C/C=C/C(=O)Nc1ccc(C(=O)N2CCC[C@@H](Nc3ncc(Cl)c(-c4c[nH]c5ccccc45)n3)C2)cc1 [THZ531]
maximum observed lethal fraction
Details	0.01 µM	0.0316 µM	0.1 µM	0.316 µM	1 µM	3.16 µM	10 µM
[1]	0.0612	0.0612	0.0684	0.17	0.346	0.314	0.836
[2]	0.049	0.0521	0.0575	0.271	0.325	0.46	0.923
[3]	0.061	0.0622	0.0635	0.0888	0.105	0.0957	0.188
[4]	0.0636	0.0649	0.0776	0.465	0.359	0.489	0.903

COc1cc([C@@H]2c3cc4c(cc3[C@@H](O[C@@H]3O[C@@H]5CO[C@@H](c6cccs6)O[C@H]5[C@H](O)[C@H]3O)[C@H]3COC(=O)[C@H]23)OCO4)cc(OC)c1O [Teniposide]
maximum observed lethal fraction
Details	0.0316 µM	0.1 µM	0.316 µM	1 µM	3.16 µM	10 µM	31.6 µM
[1]	0.079	0.0821	0.0892	0.383	0.686	0.763	0.815
[2]	0.0732	0.0749	0.0834	0.373	0.714	0.804	0.867
[3]	0.0788	0.0806	0.0807	0.0902	0.106	0.205	0.299
[4]	0.0736	0.0745	0.0806	0.355	0.728	0.801	0.968
